The text below walks through data of patent publication US6610289B2, “Mutated herpes simplex virus type 1 thymidine kinases and uses thereof” (The Board of Trustees of the University of Arkansas, priority 1998, dated 2003).

Like-named read-outs stand apart in the source and are kept apart here.

Data set [1] relates to HSV-1 TK. Description: Substrate screen: phosphorylation of thymidine, TMP, GCV, ACV, dC, AZT by partially purified HSV-1 TKs. The class given is biochemical, herpes simplex virus type 1. How it is done: The activity of the purified HSV-1 TK was determined using the following standard reaction mixture for thymidine as a substrate (12): 3 μg of protein, 4 μM [^3H-methyl]thymidine (0.1 mCi/mmol), 20 mM potassium phosphate, pH 7.6, 1 mM DTT, 5 mM ATP, 5 mM MgCl2, 25 mM NaF, 40 mM KCl, and 0.5 mg/ml BSA in a total volume of 25 μl for 10 minutes at 37° C. To identify phosphorylated products, 20 μl of the reaction mixture was loaded onto a DE-81 filter and dried, washed once in 1 mM ammonium formate, twice more in 95% ethanol, and counted for radioactivity (12). Radioactivity was determined using an LKB 1214 Rackbeta liquid scintillation counter and corrected for background using controls with enzyme incubated in the absence of ATP. For TMPK activity, 20 μM [^3H-methyl]TMP was substituted for thymidine in the above assay mixture, and [^3H]TDP product was determined by separation from [^3H]TMP on thin layer PEI-cellulose plates developed in 0.35M LiCl (21). Amount of product converted to TDP was quantitated by scintillation counting of the excised TMP and TDP spots. The filter binding assay was used to quantitate the phosphorylation of [^3H]dC (200) μM and [^3H]AZT (200 μM) with the four enzymes. To compare relative enzymatic activities for [^3H]GCV (50 μM) and [^3H]ACV (50 μM), reactions were loaded onto small DE-52 columns packed in Pasteur pipettes as previously described (22).
As an initial screen for activity, each expressed HSV-1 TK enzyme was assayed for phosphorylation of the following substrates: thymidine (4 μM), TMP (20 μM), ACV (50 μM), GCV (50 μM), deoxycytidine (dC, 200 μM), or 3′-azido-2′,3′dideoxythymidine (AZT, 200 μM). Enzymatic conditions for optimal wild-type HSV-1 TK activities were utilized, thus results presented in Table 1 for each substrate were normalized to 100% values for comparative purposes. As expected, the wild-type Gln-125 HSV-1 TK efficiently phosphorylated each of these substrates. For each mutant, there was a striking decrease in their ability to phosphorylate pyrimidine nucleosides, and minimal TMPK activity for the TMP substrate.

Data set [2] relates to HCT-116 cells. Description: MTT cell viability, sensitivity to GCV killing, HCT-116 cell lines expressing HSV-1 TKs. The class given is cell-based, human. The conditions noted are these: HCT-116, GCV 0-5 μM, 4 days, FIG. 3B. How it is done: Cells were plated in triplicate and exposed to 0, 0.05, 0.5 or 5 μM GCV for four days. Cell viabilities were determined using MTT dye. […] FIG. 3A: NIH3T3 cell lines, FIG. 3B: HCT-116 cell lines; parental cells (noTK, dark bands); Asp125TK (Asp-#, brick band); Glu-125TK (Glu-#, cross-hatch bands); Asn-125TK (Asn-#, gray bands); wild-type HSV-1 TK (WT-#, striped bands).
A Moloney murine leukemia virus derived plasmid for the expression of HSV-TK, termed pLENTK, has been previously constructed (24). A unique BspEI-MluI restriction fragment within the HSV-TK sequence of pLENTK contains the Gln-125 mutation site. This fragment was removed from wild-type plasmid and replaced with the analogous fragments encoding each mutant. […] Along with wild-type HSV-1 TK plasmid, each mutant-TK plasmid was transfected individually into the murine fibroblast cell line, NIH 3T3, and the human colon tumor cell line, HCT-116, using lipofectin reagent (GIBCO/BRL) (2 μg plasmid, 14 μl lipid per 1×10^6 cells). Cells were maintained in RPMI 1640 media and selected with G418 (200 μg/ml for 2 weeks) as previously described (24). At least eight individual G418 resistant cell clones were picked and grown up for further characterization. Each clone was screened initially for growth inhibition by 25 μM GCV. Those clones that were sensitive were further analyzed for HSV-TK protein expression by Western blot analysis with a polyclonal, rabbit anti-HSV-TK antibody (a gift from Dr. Margaret Black). For each clone, cell numbers were normalized to 1×10^6, and equal protein loading was confirmed for each sample by gel staining. Blotted HSV-1 TK protein bands were visualized on film using ECL chromophore reagents (Amersham). For analysis of GCV sensitivity of different clones, NIH3T3 and HCT-116 cell sets were seeded in 96 well plates in 0.1 ml media (15,000 cells/well). The next day, a dose range of GCV (0.005 to 5 mM, n=3) was added in 0.1 ml media. After 4 days, MTT ([…]) was added for 1.5 hours, followed by DMSO solubilization of the cells and absorbance reading at 540 nm (25).
cDNA for each mutant was incorporated into a Moloney murine leukemia virus plasmid (24). The plasmids for wild-type HSV-1 TK and each mutant were individually transfected into either NIH3T3 cells or the human colon tumor cell line, HCT-116. Following drug selection in G418, individual cell clones were evaluated for sensitivity to GCV and relative levels of HSV-1 TK expression. Using an HSV-1 TK antibody and extracts normalized by protein and cell number, the relative expression levels of HSV-1 TK in each cell clone were determined.

The subject of data set [3] is HSV-1 TK. It counts as biochemical, herpes simplex virus type 1. The following applies: substrate thymidine. How it is done: (§1) For determination of Km values of thymidine and GCV for the four enzymes, the filter binding assay was utilized. The basic reaction components were as above, and the following enzyme concentrations, substrate ranges and times were used under linear initial velocity conditions: for [^3H]thymidine: parent Gln-125TK: 0.1 μg TK, 0.1-4 μM, 10 min; Asn-125TK: 0.2 μg TK, 0.25-10 μM, 15 min; Asp-125TK: 4 μg TK, 0.1-2.5 μM, 30 min; Glu-125TK 0.5 μg TK, 0.5-2.5 μM, 15 min. For [^3H]GCV: parent Gln-125TK: 2 μg TK, 5-100 μM, 15 min; Asn-125TK: 0.6 μg TK, 0.5-15 μM, 15 min; Asp-125TK: Not determined; Glu-125TK 4 μg TK, 50-1000 μM, 25 min. Each reaction was done in triplicate. For calculation of kinetic constants, non-linear regression Michaelis-Menten analyses were done using PSI-PLOT version 5.0 (Poly Software International).
(§2) Unlike the substrate screening assays presented in Table 1, linear velocity conditions for each enzyme and substrate were established prior to Km determinations.

Data set [4] concerns the target T1, HSV-1 TK (Human herpesvirus 1, UniProt P0DTH5, Q125D).
T1 construct: made in house; host or cells: E. coli BL21SY211 (pET-9a derived pET-TK plasmids)
T1 sequence (P0DTH5 1-376 Q125D): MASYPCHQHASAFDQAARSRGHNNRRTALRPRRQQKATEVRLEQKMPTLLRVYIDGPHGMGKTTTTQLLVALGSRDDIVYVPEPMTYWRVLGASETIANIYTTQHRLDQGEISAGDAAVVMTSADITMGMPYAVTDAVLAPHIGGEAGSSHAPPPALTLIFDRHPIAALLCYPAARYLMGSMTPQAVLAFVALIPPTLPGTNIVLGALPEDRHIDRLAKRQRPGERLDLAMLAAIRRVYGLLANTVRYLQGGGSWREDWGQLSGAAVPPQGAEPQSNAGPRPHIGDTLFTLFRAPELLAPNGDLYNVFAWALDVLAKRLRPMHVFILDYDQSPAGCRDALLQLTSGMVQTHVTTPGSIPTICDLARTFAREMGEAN
It counts as biochemical, herpes simplex virus type 1. The following applies: substrate GCV. How it is done:
as §1, §2

Consider Asp-125, for which, in data set [1] (substrate ACV 50 μM), the “Product formation ACVMP” value is on record as 14 % of wild-type Gln-125. Besides, the “Product formation AZTMP” value in data set [1] (substrate AZT 200 μM) was 8 % of wild-type Gln-125. For the same substance, the “Product formation GCVMP” value in data set [1] (substrate GCV 50 μM) is given as 0.7 % of wild-type Gln-125. The “Product formation TDP (TMPK activity)” value in data set [1] (substrate TMP 20 μM) is reported as 4 % of wild-type Gln-125. The “Product formation dCMP” value in data set [1] (substrate dC 200 μM) is given as >0.1 % of wild-type Gln-125. In addition, the “Product formation TMP” value in data set [1] (substrate thymidine 4 μM) is 0.5 % of wild-type Gln-125. The “Dose dependent cell killing by GCV (cell viability, MTT)” value in data set [2] was “little effect on cell viability”. In addition, in data set [3], the “Change of kcat for thymidine relative to wild-type (in words)” value is listed as “doubled”, the “Increase of Km for thymidine relative to wild-type enzyme” value is about 6000 fold and the kcat thymidine worked out at 0.11 s⁻¹. Moreover, the Km (commonly the substrate concentration at which the rate is half of its maximum) in data set [3] (read-out: Km thymidine) stood at 6 mM. In data set [4], the “Ganciclovir phosphorylation kinetics (in words)” value was “poorly phosphorylate ganciclovir, but with non-linear kinetics”. For the same substance, the “Ganciclovir phosphorylation kinetics (in words)” value in data set [4] (listed as Asp-125TK) is “no linear velocity conditions could be established”.
